Assay results from article doi:10.1101/2025.09.11.675743v1 (biorxiv, 2025).

These compounds were tested against hERG (Homo sapiens, UniProt Q12809) (assay: hERG safety counterscreen).
Assay type: cell-based

hERG, sequence (Q12809 whole entry): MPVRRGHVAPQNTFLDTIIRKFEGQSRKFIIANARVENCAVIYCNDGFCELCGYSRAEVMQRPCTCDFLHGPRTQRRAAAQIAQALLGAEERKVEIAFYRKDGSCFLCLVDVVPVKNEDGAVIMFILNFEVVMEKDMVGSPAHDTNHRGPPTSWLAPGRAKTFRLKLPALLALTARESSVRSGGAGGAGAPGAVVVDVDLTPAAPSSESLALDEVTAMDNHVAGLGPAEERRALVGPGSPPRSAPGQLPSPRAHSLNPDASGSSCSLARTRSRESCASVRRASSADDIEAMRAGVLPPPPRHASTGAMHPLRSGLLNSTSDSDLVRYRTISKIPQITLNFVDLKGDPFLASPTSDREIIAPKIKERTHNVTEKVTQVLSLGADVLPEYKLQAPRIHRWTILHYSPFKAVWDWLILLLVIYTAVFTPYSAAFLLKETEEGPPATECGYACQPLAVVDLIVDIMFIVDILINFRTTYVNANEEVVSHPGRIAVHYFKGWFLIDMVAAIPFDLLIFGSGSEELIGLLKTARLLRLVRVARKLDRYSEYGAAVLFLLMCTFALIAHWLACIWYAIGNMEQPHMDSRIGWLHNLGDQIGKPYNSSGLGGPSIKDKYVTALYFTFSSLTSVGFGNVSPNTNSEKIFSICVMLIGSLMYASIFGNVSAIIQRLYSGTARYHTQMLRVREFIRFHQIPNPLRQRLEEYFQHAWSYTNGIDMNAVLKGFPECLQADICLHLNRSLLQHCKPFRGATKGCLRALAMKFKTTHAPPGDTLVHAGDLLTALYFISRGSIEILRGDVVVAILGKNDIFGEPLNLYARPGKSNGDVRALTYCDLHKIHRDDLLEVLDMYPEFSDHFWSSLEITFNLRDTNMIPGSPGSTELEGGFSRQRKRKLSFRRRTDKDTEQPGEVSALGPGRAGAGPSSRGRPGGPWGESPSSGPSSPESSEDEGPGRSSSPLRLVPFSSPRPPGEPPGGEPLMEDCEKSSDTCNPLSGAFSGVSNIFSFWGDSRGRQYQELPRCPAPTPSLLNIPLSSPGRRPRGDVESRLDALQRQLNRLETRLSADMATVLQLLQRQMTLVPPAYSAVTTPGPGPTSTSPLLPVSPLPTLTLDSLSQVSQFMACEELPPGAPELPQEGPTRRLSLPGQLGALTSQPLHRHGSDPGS

| Compound | IC50 |
| --- | --- |
| c1ccc(CCNc2nc(-c3c[nH]c4ccccc34)cs2)cc1 [T2M-010] | > 60 µM |

Each compound was assayed against T1, recombinant human TREM2 protein (Homo sapiens, UniProt Q9NZC2) (assay: microscale thermophoresis).
T1 sequence (Q9NZC2 19-174 limits assumed): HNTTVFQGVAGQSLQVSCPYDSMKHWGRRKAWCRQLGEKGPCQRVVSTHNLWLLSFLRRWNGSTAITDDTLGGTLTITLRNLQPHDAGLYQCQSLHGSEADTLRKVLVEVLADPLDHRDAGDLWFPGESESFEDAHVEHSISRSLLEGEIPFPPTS
Assay type: binding

| Kd | Compound |
| --- | --- |
| 28900 ± 1740 nM | c1ccc(Nc2nc(-c3c[nH]c4ccccc34)cs2)nc1 [T2K-014] |
| 50800 ± 3740 nM | c1ccc(Nc2nc(-c3c[nH]c4ccccc34)cs2)cc1 [T2M-002] |
| 1350 ± 160 nM | c1ccc2c(-c3csc(NC4CC4)n3)c[nH]c2c1 [T2M-003] |
| 830 ± 100 nM | c1ccc(CCNc2nc(-c3c[nH]c4ccccc34)cs2)cc1 [T2M-010] |
| 2440 ± 300 nM | CNc1nc(-c2c[nH]c3ccccc23)cs1 [T2M-016] |
